This is an account of results in patent US20200131669A1, “CYCLIC PEPTIDE COMPOUND HAVING HIGH MEMBRANE PERMEABILITY, AND LIBRARY CONTAINING SAME” (Chugai Seiyaku Kabushiki Kaisha, priority 2017, published 2020).

Starred links: 1 amine or outer side, 2 acyl side, 3 side chain; linkers in the order of their positions; H or OH if unused. Positions of bridges follow the written chain, without caps; N, C: chain ends. Non-standard residues stand in square brackets, D forms with d. Residues, ends and D or L forms follow the SMILES beside them. *: point of attachment. X13 = O=C([C@@H]1C[C@H](N2CCC(F)(F)CC2)CN1[*:1])[*:2]; X4 = O=C([C@@H]1C[C@@H](N2CCC(F)(F)CC2)CN1[*:1])[*:2]; NMeAbu(4-morpholino) = CN[C@@H](CCN1CCOCC1)C(=O)O; NMePhe(3-Cl) = CN[C@@H](Cc1cccc(Cl)c1)C(=O)O; X12 = CCCC[C@@H](O)[C@H](N[*:1])C(=O)[*:2]; X15 = CN([C@H](CCN1CCOCC1)C(=O)[*:2])[*:1]; X8 = O=C(CN(CCN1CCC(F)(F)CC1)[*:1])[*:2]; X3 = O=C([C@H](CCCCO)N[*:1])[*:2]; NMeF = CN[C@@H](Cc1ccccc1)C(=O)O; NMeGABA = CN(CCCC(=O)[*:2])[*:1]; NMeL = CN[C@@H](CC(C)C)C(=O)O; NMeV = CN[C@H](C(=O)O)C(C)C; NMeA = CN[C@@H](C)C(=O)O; Piperidide = C1CCN(*)CC1; dAbu = CC[C@@H](N)C(=O)O; NBuGly = CCCCNCC(=O)O; Sar = CNCC(=O)O; tBu = CC(C)(C)*

The first data set can be described thus: Caco-2 membrane permeability, improved method as used in the following Examples (96-well, 20 to 24 h preincubation). The class given is in vitro ADME. Conditions: human, Caco-2, Caco-2. The method, boiled down:
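Caco-2 monolayers were grown three weeks and preincubated 20–24 h at 37 °C with compound in DMEM+FaSSIF (1% DMSO) apically. The assay then used compound in FaSSIF/HBSS (1% DMSO, pH 6.0) apically and HBSS with 4% BSA (pH 7.4) basally. Basal samples were taken at 180 min for LC/MS, and Papp (cm/sec) was calculated.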
For orientation: Caco-2 cells form a polarised layer with tight junctions and transporters.
In turn, `CC(C)C[C@H]1C(=O)N[C@H](C(=O)N2CCCCC2)CC(=O)N(C)[C@@H](C)C(=O)N[C@@H](C(C)C)C(=O)N(C)[C@@H](CC(C)C)C(=O)N(C)[C@@H](Cc2ccccc2)C(=O)N[C@@H](C(C)C)C(=O)N(C)[C@@H](Cc2ccccc2)C(=O)N(C)[C@@H](CC(C)C)C(=O)N[C@@H](CCCCO)C(=O)N(C)CC(=O)N1C` [pd448] ([NMeA]V[NMeL][NMeF]V[NMeF][NMeL][X3][Sar][NMeL]D-Piperidide; lactam N-11) had a Papp A→B at 180 min of 1.3 ×10⁻⁶ cm/s.
On the same count and under the same terms, the result for `CC(C)C[C@@H]1NC(=O)[C@H](Cc2ccccc2)N(C)C(=O)[C@@H](CC(C)C)NC(=O)C[C@@H](C(=O)N2CCCCC2)NC(=O)[C@H](C(C)C)N(C)C(=O)[C@H](Cc2ccccc2)N(C)C(=O)[C@H](COC(C)(C)C)NC(=O)[C@H](CC(C)C)N(C)C(=O)CN(C)C(=O)[C@H](CCCCO)NC(=O)[C@H](CC(C)C)N(C)C1=O` [pd449] ([dL][NMeF]L[NMeL][X3][Sar][NMeL]S(tBu)[NMeF][NMeV]D-Piperidide; lactam N-11) reads 2 ×10⁻⁶ cm/s.
Compound `CC(C)C[C@@H]1NC(=O)[C@H](Cc2ccccc2)N(C)C(=O)[C@@H](C(C)C)NC(=O)C[C@@H](C(=O)N2CCCCC2)NC(=O)[C@H](C(C)C)N(C)C(=O)[C@H](Cc2ccccc2)N(C)C(=O)[C@H](COC(C)(C)C)NC(=O)[C@H](CC(C)C)N(C)C(=O)CN(C)C(=O)[C@H](CCCCO)NC(=O)[C@H](CC(C)C)N(C)C1=O` [pd450] ([dV][NMeF]L[NMeL][X3][Sar][NMeL]S(tBu)[NMeF][NMeV]D-Piperidide; lactam N-11) registered a Papp A→B at 180 min of 1.8 ×10⁻⁶ cm/s.
`CC(C)C[C@@H]1NC(=O)[C@H](C)N(C)C(=O)C[C@@H](C(=O)N2CCCCC2)NC(=O)[C@H](CC(C)C)N(C)C(=O)CN(C)C(=O)[C@H](CCCCO)NC(=O)[C@H](CC(C)C)N(C)C(=O)[C@H](Cc2ccccc2)N(C)C(=O)[C@H](CC(C)C)NC(=O)[C@H](Cc2ccccc2)N(C)C(=O)[C@H](CC(C)C)N(C)C1=O` [pd451] ([NMeA]L[NMeL][NMeF]L[NMeF][NMeL][X3][Sar][NMeL]D-Piperidide; lactam N-11): the Papp A→B at 180 min stood at 4.1 ×10⁻⁶ cm/s.
In turn, `CCCCN1CC(=O)N(C)[C@@H](CC(C)C)C(=O)N[C@@H](COC(C)(C)C)C(=O)N(C)[C@@H](Cc2ccccc2)C(=O)N(C)[C@@H](C(C)C)C(=O)N[C@H](C(=O)N2CCCCC2)CC(=O)N[C@H](CC(C)C)C(=O)N(C)[C@@H](Cc2ccccc2)C(=O)N[C@@H](CC(C)C)C(=O)N(C)[C@@H](CCN2CCOCC2)C(=O)N[C@@H]([C@@H](C)O)C1=O` [pd452] ([dL][NMeF]L[NMeAbu(4-morpholino)]T[NBuGly][NMeL]S(tBu)[NMeF][NMeV]D-Piperidide; lactam N-11) yielded a Papp A→B at 180 min of 1.3 ×10⁻⁶ cm/s.
`CCCCN1CC(=O)N(C)[C@@H](C(C)C)C(=O)N[C@H](C(=O)N2CCCCC2)CC(=O)N(C)[C@@H](C)C(=O)N[C@@H](CC(C)C)C(=O)N(C)[C@@H](CC(C)C)C(=O)N(C)[C@@H](Cc2ccccc2)C(=O)N[C@@H](CC(C)C)C(=O)N(C)[C@@H](Cc2ccccc2)C(=O)N(C)[C@@H](CCN2CCOCC2)C(=O)N[C@@H]([C@@H](C)O)C1=O` [pd453] ([NMeA]L[NMeL][NMeF]L[NMeF][NMeAbu(4-morpholino)]T[NBuGly][NMeV]D-Piperidide; lactam N-11) displayed a Papp A→B at 180 min of 2.3 ×10⁻⁶ cm/s.
In turn, `CCCCN1CC(=O)N(C)[C@H](CCN2CCOCC2)C(=O)N[C@H](C(=O)N2CCCCC2)CC(=O)N(C)[C@@H](C)C(=O)N[C@@H](CC(C)C)C(=O)N(C)[C@@H](CC(C)C)C(=O)N(C)[C@@H](Cc2ccccc2)C(=O)N[C@@H](CC(C)C)C(=O)N(C)[C@@H](Cc2ccccc2)C(=O)N(C)[C@@H](CC(C)C)C(=O)N[C@@H]([C@@H](C)O)C1=O` [pd454] ([NMeA]L[NMeL][NMeF]L[NMeF][NMeL]T[NBuGly][X15]D-Piperidide; lactam N-11) had a Papp A→B at 180 min of 1.2 ×10⁻⁶ cm/s.
For `CC(C)C[C@@H]1NC(=O)[C@H](Cc2ccccc2)N(C)C(=O)[C@H](CC(C)C)N(C)C(=O)[C@H](CC(C)C)NC(=O)[C@H](C)N(C)C(=O)C[C@@H](C(=O)N2CCCCC2)NC(=O)[C@H](CC(C)C)N(C)C(=O)CN(C)C(=O)[C@H]([C@@H](C)O)NC(=O)CN(CCN2CCC(F)(F)CC2)C(=O)[C@H](Cc2ccccc2)N(C)C1=O` [pd456] ([NMeA]L[NMeL][NMeF]L[NMeF][X8]T[Sar][NMeL]D-Piperidide; lactam N-11), the Papp A→B at 180 min came to 5 ×10⁻⁶ cm/s.
In turn, `CC(C)C[C@H]1C(=O)N[C@@H](COC(C)(C)C)C(=O)N(C)[C@@H](Cc2ccccc2)C(=O)N(C)[C@@H](CC(C)C)C(=O)N[C@H](C(=O)N2CCCCC2)CC(=O)N2C[C@H](N3CCC(F)(F)CC3)C[C@H]2C(=O)N(C)[C@@H](Cc2cccc(Cl)c2)C(=O)N[C@@H](C(C)C)C(=O)N(C)[C@@H](C(C)C)C(=O)N[C@@H]([C@@H](C)O)C(=O)N(C)CC(=O)N1C` [pd458] ([X4][NMePhe(3-Cl)]V[NMeV]T[Sar][NMeL]S(tBu)[NMeF][NMeL]D-Piperidide; lactam N-11) gave a Papp A→B at 180 min of 1.2 ×10⁻⁶ cm/s.
`CC[C@H]1NC(=O)C[C@@H](C(=O)N2CCCCC2)NC(=O)[C@H](CC(C)C)N(C)C(=O)[C@H](Cc2ccccc2)NC(=O)[C@@H]2C[C@@H](N3CCC(F)(F)CC3)CN2C(=O)[C@H]([C@@H](C)O)NC(=O)[C@H](CC(C)C)N(C)C(=O)[C@H](CC(C)C)NC(=O)[C@H](CC(C)C)N(C)C(=O)[C@H](COC(C)(C)C)NC(=O)[C@H](CC(C)C)N(C)C1=O` [pd459] ([dAbu][NMeL]S(tBu)[NMeL]L[NMeL]T[X4]F[NMeL]D-Piperidide; lactam N-11) gave a Papp A→B at 180 min of 1.6 ×10⁻⁶ cm/s.
As to `CC(C)C[C@H]1C(=O)N(C)[C@@H](CC(C)C)C(=O)N(C)[C@@H](CC(C)C)C(=O)N(C)[C@@H](Cc2ccccc2)C(=O)N[C@@H]([C@@H](C)O)C(=O)N(C)[C@@H](Cc2ccccc2)C(=O)N(C)[C@@H](CC(C)C)C(=O)N2C[C@H](N3CCC(F)(F)CC3)C[C@H]2C(=O)N[C@H](C(=O)N2CCCCC2)CC(=O)N[C@@H](C(C)C)C(=O)NCC(=O)N1C` [pd460] (VG[NMeL][NMeL][NMeL][NMeF]T[NMeF][NMeL][X4]D-Piperidide; lactam N-11), the Papp A→B at 180 min turned out to be 1.2 ×10⁻⁶ cm/s.
For `CC(C)C[C@H]1C(=O)N[C@@H](COC(C)(C)C)C(=O)N(C)[C@@H](Cc2ccccc2)C(=O)N(C)[C@@H](CC(C)C)C(=O)N[C@H](C(=O)N2CCCCC2)CC(=O)N2C[C@@H](N3CCC(F)(F)CC3)C[C@H]2C(=O)N(C)[C@@H](Cc2cccc(Cl)c2)C(=O)N[C@@H](C(C)C)C(=O)N(C)[C@@H](C(C)C)C(=O)N[C@@H]([C@@H](C)O)C(=O)N(C)CC(=O)N1C` [pd461] ([X13][NMePhe(3-Cl)]V[NMeV]T[Sar][NMeL]S(tBu)[NMeF][NMeL]D-Piperidide; lactam N-11), the Papp A→B at 180 min was 1.4 ×10⁻⁶ cm/s.
In turn, `CCCC[C@@H](O)[C@@H]1NC(=O)[C@H](CC(C)C)N(C)C(=O)[C@H](C)NC(=O)[C@H](Cc2ccccc2)N(C)C(=O)[C@@H](C(C)C)NC(=O)C[C@@H](C(=O)N2CCCCC2)NC(=O)[C@H](C)N(C)C(=O)[C@H](Cc2ccccc2)N(C)C(=O)[C@H](COC(C)(C)C)NC(=O)[C@H](CC(C)C)N(C)C(=O)CN(C)C1=O` [pd467] ([dV][NMeF]A[NMeL][X12][Sar][NMeL]S(tBu)[NMeF][NMeA]D-Piperidide; lactam N-11) had a Papp A→B at 180 min of 1.4 ×10⁻⁶ cm/s.
For `CCCC[C@@H](O)[C@@H]1NC(=O)[C@H](Cc2ccccc2)N(C)C(=O)[C@H](Cc2ccccc2)N(C)C(=O)[C@H]([C@@H](C)CC)NC(=O)[C@H](CC(C)C)N(C)C(=O)CCCN(C)C(=O)C[C@@H](C(=O)N2CCCCC2)NC(=O)[C@H](CC(C)C)N(C)C(=O)[C@H](C)N(C)C(=O)[C@H]([C@@H](C)O)NC(=O)[C@H](CC(C)C)N(C)C1=O` [pd468] ([NMeGABA][NMeL]I[NMeF][NMeF][X12][NMeL]T[NMeA][NMeL]D-Piperidide; lactam N-11), the Papp A→B at 180 min is 1 ×10⁻⁶ cm/s.
As to `CCCC[C@@H](O)[C@@H]1NC(=O)[C@H](CC(C)C)N(C)C(=O)[C@H](Cc2ccccc2)N(C)C(=O)[C@H](C)NC(=O)[C@H](Cc2ccccc2)N(C)C(=O)[C@H](CC(C)C)N(C)C(=O)[C@H](C(C)C)NC(=O)[C@H](C)N(C)C(=O)C[C@@H](C(=O)N2CCCCC2)NC(=O)[C@H](CC(C)C)N(C)C(=O)CN(C)C1=O` [pd469] ([NMeA]V[NMeL][NMeF]A[NMeF][NMeL][X12][Sar][NMeL]D-Piperidide; lactam N-11), the Papp A→B at 180 min is 2.5 ×10⁻⁶ cm/s.
The compound `CC(=O)NCCCC[C@@H]1NC(=O)[C@H](CC(C)C)N(C)C(=O)[C@H](CC(C)C)NC(=O)[C@H](Cc2ccccc2)N(C)C(=O)[C@@H](C(C)C)NC(=O)C[C@@H](C(=O)N2CCCCC2)NC(=O)[C@H](C(C)C)N(C)C(=O)[C@H](Cc2ccccc2)N(C)C(=O)[C@H](COC(C)(C)C)NC(=O)[C@H](CC(C)C)N(C)C(=O)CN(C)C1=O` [pd470] ([dV][NMeF]L[NMeL]K(Ac)[Sar][NMeL]S(tBu)[NMeF][NMeV]D-Piperidide; lactam N-11) yielded a Papp A→B at 180 min of 2.1 ×10⁻⁶ cm/s.

Still in this data set, the particulars now being: human; Papp, Caco-2 membrane permeability, improved method; read-out: Caco-2.
As to `CNC(=O)CC[C@@H]1NC(=O)[C@H](CC(C)C)N(C)C(=O)[C@H](C(C)C)N(C)C(=O)[C@H](Cc2ccccc2)NC(=O)[C@H](Cc2ccccc2)N(C)C(=O)[C@H](CC(C)C)N(C)C(=O)[C@H](CC(C)C)NC(=O)[C@H](CC(C)C)N(C)C(=O)C[C@@H](C(=O)N2CCCCC2)NC(=O)[C@H](CC(C)C)N(C)C(=O)CN(C)C1=O` [pd463] ([NMeL]L[NMeL][NMeF]F[NMeV][NMeL]E(NHMe)[Sar][NMeL]D-Piperidide; lactam N-11), the Papp A→B at 180 min was 1.2 ×10⁻⁶ cm/s.
